Patent US20250177334A1, “Pharmaceutical Compositions Comprising Phenylsulfonamides, and Their Therapeutic Applications” (Cura Therapeutics, LLC, priority 2018, published 2025)
“And” between values parts separate entries of the source, which are not always exact repeats. Equal values may be shown once. Read-outs that look alike come from different tables or passages of the source.

How the values were obtained:
[1] = Metabolic stability in fresh human plasma (LC/MS/MS peak heights); assay type: in vitro ADME; conditions: for % Remaining: plasma; for Peak Height: duplicate aliquots
Protocol: Compounds A1-A3 were independently spiked directly into an individual lot of fresh human plasma, with sodium heparin as the anticoagulant, such that the final assay concentration of each compound was 1.00 μM. After incubation at room temperature for 0, 0.5, 1, 2, and 4 hours, samples were removed and aliquoted for analysis. Valacyclovir was used as a positive control. The plasma samples containing a test compound were processed by protein precipitation.
A primary 1.00 mM stock solution of a test compound was prepared in either acetonitrile or acetonitrile:water (1:1, v/v). A 0.200 mM working stock was made from the primary stock in acetonitrile water (1:1, v/v), which was used in the human plasma stabiltity study. The primary and working stock solutions were stored at −20° C. when not in use. When it was used in the assay, the working stock was kept at room temperature for as short a time as possible.
The human plasma stabiltity study was initiated by adding 5.00 μL of a test compound stock solution to 0.995 mL of human plasma (sodium heparin) in a 1.7-mL snap tube. Time zero points were generated by immediately removing duplicate 50.0 μL aliquots of plasma after initiating each incubation and quenching in 150 μL of methanol. The plasma incubation tubes were capped and remained at room temperature between time points.
After 0.5, 1, 2, and 4 hours of incubation, duplicate 50.0 μL aliquots of plasma were removed and placed into the extraction tubes containing 150 μL of methanol. Each time point was immediately extracted by vortex mixing, centrifuged, and the supernate removed to HPLC vial for analysis. After extraction of all samples, the extracts were analyzed by LC/MS/MS.
LC/MS/MS analysis of the incubation solutions was conducted by initial separation of a test compound peak using chromatography prior to detection by a mass spectrometer. The LC/MS system was comprised of a HPLC coupled with a TQS-Micro or Quattro Premier. The mobile phase was nebulized using heated nitrogen in a Z-spray source/interface set to electrospray in either positive ionization mode or negative ionization mode. The ionized compounds were detected using MS/MS. The data was acquired using MassLynx.
The peak heights for compounds A1-A3 are presented in Table 1, whereas the peak heights for the positive control are shown in Table 2.

[2] = Compound A2 concentration in the CSF of rats; assay type: in vivo
Protocol: Compound A2 in the CSF of the rats was also analyzed. The results are shown in Table 4 below, wherein BQL stands for below the quantifiable limit of 2.0 ng/mL.

[3] = Pharmacokinetic study of compound A2 in rats; assay type: in vivo
Protocol: A pharmacokinetic study on compound A2 was carried out in rats.

[4] = fresh human plasma, 1.00 μM, room temperature, 0 h
[5] = fresh human plasma, 1.00 μM, room temperature, 0.5 h
[6] = fresh human plasma, 1.00 μM, room temperature, 4 h

SMILES: CS(=O)(=O)Nc1cccc(NS(=O)(=O)c2ccc(C(=O)O)cc2)c1 [Compound A1, 4-(N-(3-(methylsulfonamido)phenyl)sulfamoyl)benzoic acid]
- Mean Height ([1]; human, 0 h, 1 μM): 4,250
- Mean Height ([1]; human, 0.5 h, 1 μM): 3,740
- Mean Height ([1]; human, 1 h, 1 μM): 3,680
- Mean Height ([1]; human, 2 h, 1 μM): 3,510
- Mean Height ([1]; human, 4 h, 1 μM): 3,670
- % Remaining ([1]; human, 0 h, 1 μM): 100%
- % Remaining ([1]; human, 0.5 h, 1 μM): 88%
- % Remaining ([1]; human, 1 h, 1 μM): 87%
- % Remaining ([1]; human, 2 h, 1 μM): 83%
- % Remaining ([1]; human, 4 h, 1 μM): 86%

SMILES: CC(C)[C@H](N)C(=O)OCCOCn1cnc2c(=O)[nH]c(N)nc21 [Valacyclovir, reference compound]
- Mean Height [1, 4]: 21,400
- Peak Height [1, 4]: 21,201 and 21,603
- Mean Height [1, 5]: 20,700
- Peak Height [1, 5]: 21,055 and 20,329
- Mean Height ([1]; fresh human plasma, 1.00 μM, room temperature, 1 h): 20,500
- Peak Height ([1]; fresh human plasma, 1.00 μM, room temperature, 2 h): 19,941 and 19,624
- Mean Height [1, 6]: 17,700
- Peak Height [1, 6]: 17,697 and 17,785
- Mean Height ([1]; human, 2 h, 1 μM): 19,800
- % Remaining ([1]; human, 0 h, 1 μM): 100%
- % Remaining ([1]; human, 0.5 h, 1 μM): 96.7%
- % Remaining ([1]; human, 1 h, 1 μM): 95.8%
- % Remaining ([1]; human, 2 h, 1 μM): 92.5%
- % Remaining ([1]; human, 4 h, 1 μM): 82.7%

SMILES: COc1cc(NS(=O)(=O)c2cccc(C(=O)O)c2)cc(OC)c1 [Compound A3, 3-(N-(3,5-dimethoxyphenyl)sulfamoyl)benzoic acid]
- Mean Height ([1]; human, 0 h, 1 μM): 4,210
- Mean Height ([1]; human, 0.5 h, 1 μM): 4,100
- Mean Height ([1]; human, 1 h, 1 μM): 3,660
- Mean Height ([1]; human, 2 h, 1 μM): 3,440
- Mean Height ([1]; human, 4 h, 1 μM): 3,850
- % Remaining ([1]; human, 0 h, 1 μM): 100%
- % Remaining ([1]; human, 0.5 h, 1 μM): 97%
- % Remaining ([1]; human, 1 h, 1 μM): 87%
- % Remaining ([1]; human, 2 h, 1 μM): 82%
- % Remaining ([1]; human, 4 h, 1 μM): 91%

SMILES: Cc1ccc(C(F)(F)F)cc1NS(=O)(=O)c1cccc(C(=O)O)c1 [Compound A2, 3-(N-(2-methyl-5-(trifluoromethyl)phenyl)sulfamoyl)benzoic acid]
- CSF Concentration ([2]; IV, 0.00 h, individual animals): BQL (BQL stands for below the quantifiable limit of 2.0 ng/mL)
- CSF Concentration ([2]; IV, 0.5 h, individual animals): 65 ng/mL and 0.95 ng/mL and BQL (BQL stands for below the quantifiable limit of 2.0 ng/mL)
- CSF Concentration ([2]; IV, 1.0 h, individual animals): 4.2 ng/mL and 17 ng/mL
- CSF Concentration ([2]; IV, 2.0 h, individual animals): BQL (BQL stands for below the quantifiable limit of 2.0 ng/mL)
- CSF Concentration ([2]; IV, 8.0 h, individual animals): BQL (BQL stands for below the quantifiable limit of 2.0 ng/mL)
- CSF Concentration ([2]; IV, 12 h, individual animals): BQL (BQL stands for below the quantifiable limit of 2.0 ng/mL)
- CSF Concentration ([2]; IV, 24 h, individual animals): BQL (BQL stands for below the quantifiable limit of 2.0 ng/mL)
- CSF Concentration ([2]; PO, 0.00 h, individual animals): BQL (BQL stands for below the quantifiable limit of 2.0 ng/mL)
- CSF Concentration ([2]; PO, 0.5 h, individual animals): 4.3 ng/mL and BQL (BQL stands for below the quantifiable limit of 2.0 ng/mL)
- CSF Concentration ([2]; PO, 1.0 h, individual animals): 5.3 ng/mL and 32 ng/mL and 6.7 ng/mL
- CSF Concentration ([2]; PO, 2.0 h, individual animals): 2.8 ng/mL and 3.1 ng/mL
- CSF Concentration ([2]; PO, 4.0 h, individual animals): 139 ng/mL and 56 ng/mL
- CSF Concentration ([2]; PO, 8.0 h, individual animals): BQL (BQL stands for below the quantifiable limit of 2.0 ng/mL) and 1.6 ng/mL and 20 ng/mL
- CSF Concentration ([2]; PO, 12 h, individual animals): 1.5 ng/mL and 11 ng/mL
- CSF Concentration ([2]; PO, 24 h, individual animals): BQL (BQL stands for below the quantifiable limit of 2.0 ng/mL)
- concentration at 1 h ([2]; rat, CSF, iv, 1 mg/kg, 1.0 h, mean): 11 ng/mL
- concentration at 0.5 h ([2]; rat, CSF, iv, 1 mg/kg, IV, 0.5 h, mean, read-out: CSF Concentration, Mean): 33 ng/mL
- concentration at 2 h ([2]; rat, CSF, iv, 1 mg/kg, IV, 2.0 h, individual animals, read-out: CSF Concentration): 4.9 ng/mL
- concentration at 2 h ([2]; rat, CSF, iv, 1 mg/kg, IV, 2.0 h, mean, read-out: CSF Concentration, Mean): 4.9 ng/mL
- concentration at 4 h ([2]; rat, CSF, iv, 1 mg/kg, IV, 4.0 h, individual animals, read-out: CSF Concentration): 15 ng/mL
- concentration at 4 h ([2]; rat, CSF, iv, 1 mg/kg, IV, 4.0 h, mean, read-out: CSF Concentration, Mean): 15 ng/mL
- concentration at 8 h ([2]; rat, CSF, iv, 1 mg/kg, IV, 8.0 h, individual animals, read-out: CSF Concentration): 1.4 ng/mL
- concentration at 8 h ([2]; rat, CSF, iv, 1 mg/kg, IV, 8.0 h, mean, read-out: CSF Concentration, Mean): 1.4 ng/mL
- concentration at 1 h ([2]; rat, CSF, po, 10 mg/kg, 1.0 h, mean): 15 ng/mL
- concentration at 12 h ([2]; rat, CSF, po, 10 mg/kg, 12 h, mean): 6.5 ng/mL
- concentration at 0.5 h ([2]; rat, CSF, po, 10 mg/kg, PO, 0.5 h, individual animals, read-out: CSF Concentration): 2.7 ng/mL
- concentration at 0.5 h ([2]; rat, CSF, po, 10 mg/kg, PO, 0.5 h, mean, read-out: CSF Concentration, Mean): 3.5 ng/mL
- concentration at 2 h ([2]; rat, CSF, po, 10 mg/kg, PO, 2.0 h, individual animals, read-out: CSF Concentration): 3.6 ng/mL
- concentration at 2 h ([2]; rat, CSF, po, 10 mg/kg, PO, 2.0 h, mean, read-out: CSF Concentration, Mean): 3.2 ng/mL
- concentration at 4 h ([2]; rat, CSF, po, 10 mg/kg, PO, 4.0 h, mean, read-out: CSF Concentration, Mean): 97.4 ng/mL
- concentration at 8 h ([2]; rat, CSF, po, 10 mg/kg, PO, 8.0 h, mean, read-out: CSF Concentration, Mean): 11 ng/mL
- concentration at 24 h ([2]; rat, CSF, po, 10 mg/kg, PO, 24 h, individual animals, read-out: CSF Concentration): 2 ng/mL
- concentration at 24 h ([2]; rat, CSF, po, 10 mg/kg, PO, 24 h, mean, read-out: CSF Concentration, Mean): 2 ng/mL
- AUCINF/Dose ([3]; IV): 13800
- CL or CL/F ([3]; IV): 1.2 mL/min/kg
- HL ([3]; IV): 5 h
- AUCINF/Dose ([3]; PO): 6420
- HL ([3]; PO): 7 h
- AUC(0-inf) ([3]; rat, in vivo, 1 mg/kg, IV): 13800 ng·h/mL
- AUC(0-t) ([3]; rat, in vivo, 1 mg/kg, IV): 13400 ng·h/mL
- Cmax ([3]; rat, in vivo, 1 mg/kg, IV): 4310 ng/mL
- AUC(0-inf) ([3]; rat, in vivo, 10 mg/kg, PO): 64200 ng·h/mL
- AUC(0-t) ([3]; rat, in vivo, 10 mg/kg, PO): 56200 ng·h/mL
- Cmax ([3]; rat, in vivo, 10 mg/kg, PO): 4590 ng/mL
- Tmax ([3]; rat, in vivo, 10 mg/kg, PO): 4 h
- bioavailability ([3]; rat, in vivo, 10 mg/kg, PO): 45%
- CL/F ([3]; rat, in vivo, 10 mg/kg, PO, read-out: CL or CL/F): 2.6 mL/min/kg
- Mean Height ([1]; human, 0 h, 1 μM): 12,600
- Mean Height ([1]; human, 0.5 h, 1 μM): 13,300
- Mean Height ([1]; human, 1 h, 1 μM): 13,000
- Mean Height ([1]; human, 2 h, 1 μM): 13,000
- Mean Height ([1]; human, 4 h, 1 μM): 13,100
- % Remaining ([1]; human, 0 h, 1 μM): 100%
- % Remaining ([1]; human, 0.5 h, 1 μM): 106%
- % Remaining ([1]; human, 1 h, 1 μM): 103%
- % Remaining ([1]; human, 2 h, 1 μM): 103%
- % Remaining ([1]; human, 4 h, 1 μM): 104%
